# Tests used:
# [1] = tested on: HT29 cells; test: MTT assay, HT29; type: cell-based, human; details: for IC50: Homo sapiens, HT-29, HT29, MTT, 24 h treatment, mean ± SD; for SI (selectivity index): IC50 CCD 841 CoTr divided by IC50 HT29
# Method: (§1) The effects of TZD–TSCs 2–5 on the cellular viability of a panel of cell lines were investigated through an 3-(4,5-dimethylthiazol-2-yl)-2,5-diphenyl-2H-tetrazolium bromide (MTT) assay, following a 24 h treatment with the compounds. The panel consisted of three solid tumor cells: T98G (glioblastoma multiforme), HepG2 (hepatocellular carcinoma, epithelial), and HT29 (colon adenocarcinoma, epithelial), as well as noncancerous cells CCD 841 CoTr (normal colon, epithelial).
# (§2) Primary single dose screenings of TZD–TSCs 2–5 were performed at a concentration of 200 μg/mL, and those that elicited a greater than 80% inhibition of cell proliferation were analyzed at several concentrations, to find their half-maximal inhibitory concentration (IC50). The IC50 values, reported as the mean ± SD in Table 2, indicate the concentration of the tested compound that inhibits the growth/viability of the cancer cell population by 50%. In this specific case of an MTT assay, which measures the activity of mitochondrial dehydrogenases (as an indicator of cell viability), the IC50 values stand for the concentration that inhibits the metabolic activity of cells by 50%.
# (§3) Human colon adenocarcinoma cells, HT29 (ATCC no. HTB-38), derived from a grade I tumor, were cultured in roswell park memorial institute Medium (RPMI) 1640 medium, supplemented with 10% fetal calf serum (FCS) (GibcoTM, Paisley, UK) and antibiotics (100 U/mL penicillin and 100 μg/mL streptomycin) (Sigma, St. Louis, MO), at 37 °C in a humidified atmosphere with 5% CO2. Human normal colon epithelial cells, CCD 841 CoTr (ATCC no. CRL-1807), were cultured in RPMI 1640 + dulbecco’s modified eagle medium (DMEM) (1:1) medium (Sigma, St. Louis, MO), supplemented with 10% FCS and antibiotics, at 34 °C in a 5% CO2/95% air atmosphere. Human glioblastoma T98G cells were cultured in Dulbecco’s Modified Eagle’s Medium (DMEM) (Sigma Aldrich, St. Louis, MO, USA), supplemented with 10% fetal bovine serum (FBS), penicillin (100 U/mL), and streptomycin (100 μg/mL). Human hepatocellular carcinoma cells, HepG2, were maintained in Eagle’s Minimum Essential Medium, supplemented with 10% FBS, penicillin (100 U/mL), and streptomycin (100 μg/mL).
# (§4) After 24 h of incubation of the cells with the tested compounds in 100 μL of culture medium, MTT solution (5 mg/mL, 25 μL/well) was added and incubated for an additional 3 h. The purple crystals of formazan which formed in the medium were solubilized overnight in 10% sodium dodecyl sulphate (SDS) in a 0.01 M HCl mixture. The product was quantified spectrophotometrically by measuring its absorbance at 570 nm using an Emax Microplate Reader (Molecular Devices Corporation, Menlo Park, CA, USA).
# [2] = tested on: T98G cells; test: MTT assay, T98G; type: cell-based, human; details: for IC50: Homo sapiens, T98G, MTT, 24 h treatment, mean ± SD; for SI (selectivity index): IC50 CCD 841 CoTr divided by IC50 T98G
# Method: as §1, §2, §3, §4
# [3] = tested on: HepG2 cells; test: MTT assay, HepG2; type: cell-based, human; details: for IC50: Homo sapiens, HepG2, MTT, 24 h treatment, mean ± SD; for SI (selectivity index): IC50 CCD 841 CoTr divided by IC50 HepG2
# Method: as §1, §2, §3, §4
# [4] = tested on: PPARγ; set-up: method as in PMID 34006099; details: cited from earlier work
# [5] = tested on: CEM cells; set-up: method as in PMID 34006099; details: read-out: IC50, antiproliferative effects against CEM cells; cited from earlier work
# [6] = tested on: HDAC4; set-up: method as in PMID 34006099; details: cited from earlier work
# [7] = DPPH free radical scavenging test
# Text: (§5) Antioxidant activity is a complex procedure, usually happening through several multiple or predominant chemical mechanisms (i.e., hydrogen atom transfer (HAT), single electron transfer (SET), and the ability to chelate transition metals), and it is influenced by many factors, which cannot be fully described with one single method. Therefore, it is important to perform more than one type of measurement to take into account the various mechanisms of antioxidant action. In this study, to assess the antioxidant activity of TZD–TSCs 2–5, two complementary tests were used: a DPPH (2,2-diphenyl-1-picrylhydrazyl) free radical-scavenging ability assay, that detects the HAT and SET mechanisms, and a FRAP (ferric reducing antioxidant power) assay, that prefers the […] mechanism. The antioxidant powers of 2–5 were compared to standard antioxidants, such as the water-soluble synthetic analogue of vitamin E (Trolox) and ascorbic acid (vitamin C).
# The free radical scavenging activity of […] was measured by the DPPH assay. Briefly, 100 μl of DPPH solution (0.2 mg/mL in ethanol) was added to 100 μL of the tested compound concentrations (25, 75, 150, and 200 μg/mL, respectively). Trolox, at increasing concentrations (1–50 μg/mL), was used as a standard. After 20 min of incubation at room temperature, the absorbances of the solutions were measured at 515 nm. The lower the absorbance, the higher the free radical scavenging activity of the compound. The activity of each compound was determined by comparing its absorbance with that of the standard.
# The ability of the compounds to scavenge the DPPH radical was calculated by the following formula:DPPH scavenging effect (%) = [(Xcontrol − Xcompound/Xcontrol) × 100], where Xcontrol is the absorbance of the control and Xcompound is the absorbance in the presence of TZD-TSCs preparations.
# [8] = tested on: CCD 841 CoTr cells; test: MTT assay, normal colon epithelial cells; type: cell-based; details: Homo sapiens, CCD 841 CoTr (noncancerous), 24 h treatment, mean ± SD
# Method: as §1, §2, §3, §4
# [9] = Ferric-reducing antioxidant power (FRAP) assay
# Text: as §5
# Each compound concentration (25, 75, 150, and 200 μg/mL, respectively) was dissolved in Milli-Q water and mixed with an equal volume of 0.2 M sodium phosphate buffer (pH 6.6) and 1% potassium ferricyanide. The mixture was incubated for 30 min at 37 °C. Thereafter, 10% trichloroacetic acid (w/v) was added and the mixture was centrifuged at 1000 g for 5 min. One mL of the upper layer was mixed with an equal volume of Milli-Q water and 0.1% ferric chloride. The absorbance was read at 700 nm using an EL800 Universal Microplate Reader (BioTek Instruments, Winooski, VT, USA). Ascorbic acid (0–150 μg/mL) was used as a positive control.
# [10] = tested on: HT29 cells; test: Nitric oxide measurement (Griess), HT29; type: cell-based, human
# Method: (§6) Nitrate, i.e., a stable end product of NO, was measured in culture supernatants with a spectrophotometric method based on the Griess reaction. Culture supernatants were collected from the cell cultures treated with specific concentrations of the tested compounds (25, 75, 150, and 200 μg/mL, respectively). Briefly, 100 μL of the culture supernatant was placed in 96-well flat-bottomed plates in triplicate and incubated with 100 μL of Griess reagent (1% sulfanilamide/0.1% N-(1-naphthyl)ethylenediamine dihydrochloride) in 3% H3PO4 at room temperature for 10 min. The optical density was measured at 550 nm using a microplate reader. A standard curve was prepared using 0.5–25 μM sodium nitrite (NaNO2) for calibration.
# [11] = tested on: CCD 841 CoTr cells; test: Nitric oxide measurement (Griess), CCD 841 CoTr; type: cell-based, human; details: 200 μg/mL
# Method: as §6
IC50 [1],IC50 [3],SMILES,IC50 [2],DPPH reduction value corresponding to concentration of Trolox ([7]; compound at 25 μg/mL),DPPH reduction value corresponding to concentration of Trolox ([7]; compound at 75 μg/mL),DPPH reduction value corresponding to concentration of Trolox ([7]; compound at 150 μg/mL),DPPH reduction value corresponding to concentration of Trolox ([7]; compound at 200 μg/mL),IC50 [8],FRAP reduction value corresponding to concentration of ascorbic acid ([9]; compound at 25 μg/mL),FRAP reduction value corresponding to concentration of ascorbic acid ([9]; compound at 75 μg/mL),FRAP reduction value corresponding to concentration of ascorbic acid ([9]; compound at 150 μg/mL),FRAP reduction value corresponding to concentration of ascorbic acid ([9]; compound at 200 μg/mL),SI (selectivity index) [1],"NO production, [NO2^−] ([10]; HT29, 25 μg/mL)",SI (selectivity index) [2],SI (selectivity index) [3],"NO production, [NO2^−] [11]",other results
161 ± 8.51 µM,61.9 ± 2.97 µM,"COc1cc([C@@H]2c3cc4c(cc3[C@@H](O[C@@H]3O[C@@H]5CO[C@@H](C)O[C@H]5[C@H](O)[C@H]3O)[C@H]3COC(=O)[C@H]23)OCO4)cc(OC)c1O [Etoposide, reference compound]",> 160 µM,–,–,–,–,–,–,–,–,–,–,–,–,–,–,–
–,–,O=C(COc1ccc2cc(/C=C3/SC(=O)NC3=O)ccc2c1)Nc1c(F)cc(F)cc1Br [compound 1],–,–,–,–,–,–,–,–,–,–,–,–,–,–,–,Activity toward PPARγ [4]: low micromolar concentration; IC50 [5]: 9.6 µM; Activity toward HDAC4 [6]: low micromolar concentration
119 ± 10.7 µM,13.9 ± 0.59 µM,O=C(C=C1SC(=O)NC1=O)Oc1ccc(C=NNC(=S)Nc2ccc(Cl)cc2Cl)cc1 [TZD–TSC 5],93.6 ± 3.45 µM,0.768 µg/mL,2.689 µg/mL,9.964 µg/mL,15.177 µg/mL,74.2 ± 2.3 µM,2.70 µg/mL,2.43 µg/mL,4.59 µg/mL,9.19 µg/mL,0.62,~ 0.272 μM,0.79,5.35,0.272 µM,"NO production, [NO2^−] ([10]; HT29, 200 μg/mL): ~ 0.272 μM"
117 ± 9.37 µM,20.1 ± 1.19 µM,O=C(C=C1SC(=O)NC1=O)Oc1cccc(C=NNC(=S)Nc2ccccc2Cl)c1 [TZD–TSC 4],42.4 ± 2.23 µM,2.834 µg/mL,6.381 µg/mL,13.982 µg/mL,17.638 µg/mL,87.3 ± 5.06 µM,1.62 µg/mL,5.95 µg/mL,4.05 µg/mL,5.41 µg/mL,0.75,0.558 µM,2.06,4.34,0.639 µM,–
